In one experiment the test system is SARS-CoV. As to conditions: cited from earlier work; for Inhibitory activity against SARS-CoV: Thorax 2004, 59: 252-256.
A further experiment has as its system SARS-CoV-2. The experiment is described as follows: Ritonavir reducing viral nucleic acid load in SARS-CoV-2 infected Vero E6 cells (qRT-PCR). It is filed as cell-based, SARS-CoV-2 (nCoV-2019BetaCoV/Wuhan/WIV04/2019 strain). The note with it: for Copy number of virus genome: Vero E6 cells, supernatant, vehicle 5762396. As for the experimental part:
(1) Drug Treatment of Virus-Infected Cells
Vero E6 cells (purchased from ATCC, Catalog No. 1586) was inoculated on a 24-well plate, cultured for 24 hours; then virus infection was carried out. Specifically, SARS-CoV-2 (2019-nCoV) virus (nCoV-2019BetaCoV/Wuhan/WIV04/2019 strain, provided by Wuhan Institute of Virology, Chinese Academy of Sciences) was diluted with 2% cell maintenance solution (formulation: FBS (purchased from Gibco company, Catalog No. 16000044) was added to MEM (purchased from Gibco, Catalog No. 10370021) at a volume ratio of 2%, thereby obtaining the 2% cell maintenance solution) to a corresponding concentration, and then added to a 24-well plate so that each well contained a viral load of 100TCID50. […] To the vehicle control group, the 2% cell maintenance solution without any test drugs was added.
RNA extraction kit was purchased from Qiagen Company, Catalog No. 74106. The consumables (spin columns, RNase-free 2 ml collection tubes, etc.) and reagents (RLT, RW1, RPE, RNase-free water, etc.) involved in the following RNA extraction steps were part of the kit. The following extraction steps were recommended steps in the kit instruction.
1) 100 μL of the supernatant was taken from the tested plate and added to a nuclease-free EP tube, then 350 μL of Buffer RLT was added to each well and mixed by beating with a transfer liquid gun until complete lysis was achieved, then centrifugation was carried out to obtain a supernatant;
2) an equal volume of 70% ethanol was added to the supernatant obtained in 1) and mixed well;
3) the mixture solution obtained in 2) was transferred to a RNase-free spin column, and centrifuged at 12000 rpm for 15 seconds, and the waste liquid was discarded;
4) 700 μL of Buffer RW1 was added to the spin column, and centrifuged at 12000 rpm for 15 seconds to clean the spin column, and the waste liquid was discarded;
5) 500 μL of Buffer RPE was added to the spin column, and centrifuged at 12000 rpm for 15 seconds to clean the spin column, and the waste liquid was discarded;
6) 500 μL of Buffer RPE was added to the spin column, and centrifuged at 12000 rpm for 2 min to clean the spin column, the waste was discarded;
7) a new RNase-free 2 ml collection tube was used for replacement, centrifugation was carried out at 12000 rpm for 1 min, the spin column was dried, and then the spin column was transferred to a 1.5 ml collection tube in step 8);
8) a new 1.5 ml collection tube was used for replacement, in which the spin column dried in step 7) was placed, and […] of RNase-free water was added to the spin column, and centrifugation was carried out at 12000 rpm for 2 minutes, the obtained eluate contained the corresponding RNA, then the RNase inhibitor (purchased from NEB company, Catalog No. […]) was added, and Nano Drop (purchased from Thermo scientific, Nano Drop One) was used to detect each RNA concentration.
(3) RNA Reverse Transcription
In the experiment, the reverse transcription kit (PrimeScript™ RT reagent Kit with gDNA Eraser, Catalog No. RRO47Q) produced by TaKaRa was used for RNA reverse transcription.
The steps were as follows.
(1) Removal of gDNA: RNA samples of each experimental group were collected, 1 μg of each sample was taken for reverse transcription. First, 2 μl of 5×gDNA Eraser Buffer was added to the RNA sample of each experimental group, the reaction system was supplemented with RNase-free water to reach 10 μl, mixed well, and subjected to water bath at 42° C. for 2 min to remove the gDNA that might be present in the sample;
(2) Reverse transcription: Appropriate amounts of enzyme, primer Mix and reaction buffer were added to the sample obtained in […], RNase-free water was added to supplement to reach a volume of 20 μl, the reaction was performed in a water bath at 37° C. for 15 minutes, and then in water bath at 85° C. for 5 seconds, to obtain cDNA by transcription. […]

The next experiment concerns HIV-1 isolates. As to conditions: low passage clinical isolates, n=13; cited from earlier work.

The source of these data is patent US20230071014A1 (priority 2020, published 2023).

As for `Cc1cccc(C)c1OCC(=O)N[C@@H](Cc1ccccc1)[C@@H](O)C[C@H](Cc1ccccc1)NC(=O)[C@H](C(C)C)N1CCCNC1=O` [lopinavir], the “Inhibitory activity against SARS-CoV” value with SARS-CoV was “inhibits SARS-CoV”.
In the case of `CC(C)c1nc(CN(C)C(=O)N[C@H](C(=O)N[C@@H](Cc2ccccc2)C[C@H](O)[C@H](Cc2ccccc2)NC(=O)OCc2cncs2)C(C)C)cs1` [ritonavir, [5S-(5R,8R,10R,11R)]-10-hydroxy-2-methyl-5-(1-methylethyl)-1-[2-(1-methylethyl)-4-thiazolyl]-3,6-dioxo-8,11-bis(phenylmethyl)-2,4,7,12-tetraazatridecan-13-oic acid, 5-thiazolyl methyl ester], the “Copy number of virus genome” value came out at 6032699 in the experiment on SARS-CoV-2 (0.14 μM, 48 hours after infection); 5632446 in the experiment on SARS-CoV-2 (0.41 μM, 48 hours after infection); 5565821 with SARS-CoV-2 (1.23 μM, 48 hours after infection); 6213595 in the experiment on SARS-CoV-2 (3.70 μM, 48 hours after infection); 2236225 in the experiment on SARS-CoV-2 (11.11 μM, 48 hours after infection); 1855399 with SARS-CoV-2 (33.33 μM, 48 hours after infection). For the same compound, in the experiment on SARS-CoV-2 (48 hours after infection, FIG. 1), the “Reduction of viral RNA load in Vero E6 cells infected by SARS-CoV-2” value is given as “inhibitory activity is dose-dependent”. Also, in the experiment with SARS-CoV-2 (at concentrations of 33 μM, 11.1 μM), the “Inhibition of the replication of SARS-CoV-2 virus genome in the infected supernatant” value was “could effectively inhibit”. Further, the “Effectiveness against SARS-CoV” value in the experiment with SARS-CoV (Biochemical and Biophysical Research Communications 318 (2004) 719-725) is given as “ineffective”. Moreover, the “Inhibitory activity against SARS-CoV” value in the experiment with SARS-CoV is given as “does not have inhibitory activity”. For the same compound, the EC50 – broadly, the concentration at which the effect is half-maximal – in the experiment on HIV-1 isolates was 22 nM.
